The target in this test is hPin1 (Protein interacting with NIMA (-kinase)) (Homo sapiens, UniProt Q13526). The experiment in a line: protease-coupled PPIase assay, hPin1. Type of test: biochemical.
Where [1] appears, read: hPin1 6 nM, substrate Ac-Ala-Ala-Ser(PO3H2)-Pro-Arg-pNA, trypsin, 35 mM HEPES pH 7.8, 6° C., read-out: Specificity of the inhibition with rotamases, Target T-1 (IC50 class).

Each structure is given as a SMILES string. Read-outs that look alike come from different tables or passages of the source. Where a SMILES comes first, the peptide text is derived from it. [ ]: non-standard residue; d: D form. The star is where a group is joined. 2Nal = N[C@@H](Cc1ccc2ccccc2c1)C(=O)O; pGlu = O=C1CC[C@@H](C(=O)O)N1; Pip = O=C(O)[C@@H]1CCCCN1; CH2PO3H2 = O=P(O)(O)C* Some results are limits rather than exact numbers.

Sequence of hPin1 (Protein interacting with NIMA (-kinase)) (Q13526 whole entry): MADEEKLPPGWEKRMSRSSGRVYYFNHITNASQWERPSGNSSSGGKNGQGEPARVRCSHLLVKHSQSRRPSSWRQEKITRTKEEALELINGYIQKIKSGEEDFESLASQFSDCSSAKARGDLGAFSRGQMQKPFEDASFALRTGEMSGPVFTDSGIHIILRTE

For `CC(=O)N[C@@H](CSCP(=O)(O)O)C(=O)N1CCCC[C@H]1C(=O)N[C@@H](Cc1ccc2ccccc2c1)C(N)=O` [Compound 30, {2-Acetylamino-3-[2-(1-carbamoyl-2-naphthalen-2-yl-ethylcarbamoyl)-piperidin-1-yl]-3-oxo-propylsulfanylmethyl}-phosphonic acid], under setting [1], the IC50 (usually the concentration that gives 50% inhibition) lay in the range of 1 to 10 µM. The same measure, in the same setting: the figure for `NC(=O)[C@H](Cc1ccc2ccccc2c1)NC(=O)[C@@H]1CCCCN1C(=O)[C@H](CSCP(=O)(O)O)NC(=O)OCc1ccccc1` [Compound 31, {2-Benzyloxycarbonylamino-3-[2-(1-carbamoyl-2-naphthalen-2-yl-ethylcarbamoyl)-piperidin-1-yl]-3-oxo-propylsulfanylmethyl}-phosphonic acid] is less than 1 µM. The same measure, in the same setting: in the case of `NC(=O)[C@H](Cc1ccc2ccccc2c1)NC(=O)[C@@H]1CCCCN1C(=O)[C@H](CSCP(=O)(O)O)NS(=O)(=O)Cc1ccccc1` [Compound 32, {3-[2-(1-Carbamoyl-2-naphthalen-2-yl-ethylcarbamoyl)-piperidin-1-yl]-3-oxo-2-phenylmethane-sulfonylaminopropylsulfanyl-methyl}-phosphonic acid] it was less than 1 µM; in that of `NC(=O)[C@H](Cc1ccc2ccccc2c1)NC(=O)[C@@H]1CCCCN1C(=O)[C@H](CSCP(=O)(O)O)NC(=O)C1(c2ccccc2)CCCC1` [Compound 33, {3-[2-(1-Carbamoyl-2-naphthalen-2-yl-ethylcarbamoyl)-piperidin-1-yl]-3-oxo-2-[(1-phenyl-cyclopentanecarbonyl)-amino]-propylsulfanylmethyl}-phosphonicacid], 1 to 10 µM. On the same count and under the same terms, the figure for `NC(=O)[C@H](Cc1ccc2ccccc2c1)NC(=O)[C@@H]1CCCCN1C(=O)[C@H](CSCP(=O)(O)O)NC(=O)Cc1ccccc1Cl` [Compound 34, {3-[2-(1-Carbamoyl-2-naphthalen-2-yl-ethylcarbamoyl)-piperidin-1-yl]-2-[2-(2-chloro-phenyl)-acetylamino]-3-oxo-propylsulfanylmethyl}-phosphonicacid] is less than 1 µM; for `NC(=O)[C@H](Cc1ccc2ccccc2c1)NC(=O)[C@@H]1CCCCN1C(=O)[C@H](CSCP(=O)(O)O)NC(=O)Cc1ccc(Cl)cc1` [Compound 35, {3-[2-(1-Carbamoyl-2-naphthalen-2-yl-ethylcarbamoyl)-piperidin-1-yl]-2-[2-(4-chloro-phenyl)-acetylamino]-3-oxo-propylsulfanylmethyl}-phosphonicacid] it is less than 1 µM. Take `COc1ccc(CC(=O)N[C@@H](CSCP(=O)(O)O)C(=O)N2CCCC[C@H]2C(=O)N[C@@H](Cc2ccc3ccccc3c2)C(N)=O)cc1` [Compound 36, {3-[2-(1-Carbamoyl-2-naphthalen-2-yl-ethylcarbamoyl)-piperidin-1-yl]-2-[2-(4-methoxy-phenyl)-acetylamino]-3-oxo-propylsulfanylmethyl}-phosphonicacid]: the IC50 under setting [1] was less than 1 µM. Same read-out and setting: the figure for `NC(=O)[C@H](Cc1ccc2ccccc2c1)NC(=O)[C@@H]1CCCCN1C(=O)[C@H](CSCP(=O)(O)O)NC(=O)CCC(=O)c1ccc(Cl)cc1` [Compound 37, {3-[2-(1-Carbamoyl-2-naphthalen-2-yl-ethylcarbamoyl)-piperidin-1-yl]-2-[4-(4-chloro-phenyl)-4-oxo-butyrylamino]-3-oxo-propylsulfanylmethyl}-phosphonicacid] is less than 1 µM; for `COc1ccc(CCCC(=O)N[C@@H](CSCP(=O)(O)O)C(=O)N2CCCC[C@H]2C(=O)N[C@@H](Cc2ccc3ccccc3c2)C(N)=O)cc1` [Compound 38, {3-[2-(1-Carbamoyl-2-naphthalen-2-yl-ethylcarbamoyl)-piperidin-1-yl]-2-[4-(4-methoxy-phenyl)-butyrylamino]-3-oxo-propylsulfanylmethyl}-phosphonicacid] it is less than 1 µM. With `NC(=O)[C@H](Cc1ccc2ccccc2c1)NC(=O)[C@@H]1CCCCN1C(=O)[C@H](CSCP(=O)(O)O)NC(=O)[C@@H]1CCC(=O)N1` [Compound 39, {3-[2-(1-Carbamoyl-2-naphthalen-2-yl-ethylcarbamoyl)-piperidin-1-yl]-3-oxo-2-[(5-oxo-pyrrolidine-2-carbonyl)-amino]-propylsulfanyl-methyl}-phosphonic acid] ([pGlu]C(CH2PO3H2)[Pip][2Nal]-NH2), the IC50 was less than 1 µM. Take `NC(=O)[C@H](Cc1ccc2ccccc2c1)NC(=O)[C@@H]1CCCCN1C(=O)[C@H](CSCP(=O)(O)O)NC(=O)c1cc2ccccc2o1` [Compound 40, {2-[(Benzofuran-2-carbonyl)-amino]-3-[2-(1-carbamoyl-2-naphthalen-2-yl-ethylcarbamoyl)-piperidin-1-yl]-3-oxo-propylsulfanylmethyl}-phosphonicacid]: the IC50 under setting [1] is 1 to 10 µM. Take `NC(=O)[C@H](Cc1ccc2ccccc2c1)NC(=O)[C@@H]1CCCCN1C(=O)[C@H](CSCP(=O)(O)O)NC(=O)CN1CCNCC1` [Compound 41, [3-[2-(1-Carbamoyl-2-naphthalen-2-yl-ethylcarbamoyl)-piperidin-1-yl]-3-oxo-2-(2-piperazin-1-yl-acetylamino)-propylsulfanyl-methyl]-phosphonic acid]: the half-inhibitory concentration (IC50) under setting [1] was 1 to 10 µM. Same read-out and setting: the figure for `CC(C)COC(=O)N[C@@H](CSCP(=O)(O)O)C(=O)N1CCCC[C@H]1C(=O)N[C@@H](Cc1ccc2ccccc2c1)C(N)=O` [Compound 43, {3-[2-(1-Carbamoyl-2-naphthalen-2-yl-ethylcarbamoyl)-piperidin-1-yl]-2-isobutoxycarbonylamino-3-oxo-propylsulfanylmethyl}-phosphonic acid] is 1 to 10 µM; for `CCCCOC(=O)N[C@@H](CSCP(=O)(O)O)C(=O)N1CCCC[C@H]1C(=O)N[C@@H](Cc1ccc2ccccc2c1)C(N)=O` [Compound 44, {2-Butoxycarbonylamino-3-[2-(1-carbamoyl-2-naphthalen-2-yl-ethylcarbamoyl)-piperidin-1-yl]-3-oxo-propylsulfanylmethyl}-phosphonic acid] it is 1 to 10 µM. The same measure, in the same setting: the figure for `COC(=O)N[C@@H](CSCP(=O)(O)O)C(=O)N1CCCC[C@H]1C(=O)N[C@@H](Cc1ccc2ccccc2c1)C(N)=O` [Compound 45, {3-[2-(1-Carbamoyl-2-naphthalen-2-yl-ethylcarbamoyl)-piperidin-1-yl]-2-methoxycarbonylamino-3-oxo-propylsulfanylmethyl}-phosphonic acid] is 1 to 10 µM. With `NC(=O)[C@H](Cc1ccc2ccccc2c1)NC(=O)[C@@H]1CCCCN1C(=O)[C@H](CSCP(=O)(O)O)NC(=O)Oc1ccccc1` [Compound 46, {3-[2-(1-Carbamoyl-2-naphthalen-2-yl-ethylcarbamoyl)-piperidin-1-yl]3-oxo-2-phenoxycarbonylamino-propylsulfanylmethyl}-phosphonicacid], the IC50 is less than 1 µM. `NC(=O)[C@H](Cc1ccc2ccccc2c1)NC(=O)[C@@H]1CCCCN1C(=O)[C@H](CSCP(=O)(O)O)NC(=O)OCCc1ccccc1` [Compound 47, {3-{2-(1-Carbamoyl-2-naphthalen-2-yl-ethylcarbamoyl)-piperidin-1-yl]-3-oxo-2-phenethyloxycarbonyl-aminopropylsulfanylmethyl}-phosphonic acid]: under setting [1], the IC50 was in the range of 1 to 10 µM. Same read-out and setting: in the case of `NC(=O)[C@H](Cc1ccc2ccccc2c1)NC(=O)[C@@H]1CCCCN1C(=O)[C@H](CSCP(=O)(O)O)NS(=O)(=O)c1ccccc1` [Compound 48, {2-Benzenesulfonylamino-3-[2-(1-carbamoyl-2-naphthalen-2-yl-ethylcarbamoyl)-piperidin-1-yl]-3-oxo-propylsulfanylmethyl}-phosphonic acid] it was less than 1 µM; in that of `NC(=O)[C@H](Cc1ccc2ccccc2c1)NC(=O)[C@@H]1CCCCN1C(=O)[C@H](CSCP(=O)(O)O)NS(=O)(=O)CCc1ccccc1` [Compound 49, [3-[2-(1-Carbamoyl-2-naphthalen-2-yl-ethylcarbamoyl)-piperidin-1-yl]-3-oxo-2-(2-phenyl-ethanesulfonylamino)-propylsulfanylmethyl]-phosphonicacid], less than 1 µM; in that of `NC(=O)[C@H](Cc1ccc2ccccc2c1)NC(=O)[C@@H]1CCCCN1C(=O)[C@H](CSCP(=O)(O)O)NS(=O)(=O)CCCc1ccccc1` [Compound 50, [3-[2-(1-Carbamoyl-2-naphthalen-2-yl-ethylcarbamoyl)-piperidin-1-yl]-3-oxo-2-(3-phenyl-propane-1-sulfonylamino)-propylsulfanylmethyl]-phosphonicacid], less than 1 µM. With `CS(=O)(=O)N[C@@H](CSCP(=O)(O)O)C(=O)N1CCCC[C@H]1C(=O)N[C@@H](Cc1ccc2ccccc2c1)C(N)=O` [Compound 51, {3-[2-(1-Carbamoyl-2-naphthalen-2-yl-ethylcarbamoyl)-piperidin-1-yl]-2-methanesulfonylamino-3-oxo-propylsulfanylmethyl}-phosphonic acid], under setting [1], the IC50 fell in the range of 1 to 10 µM.

Take `Cc1cc(C)c(S(=O)(=O)N[C@@H](CSCP(=O)(O)O)C(=O)N2CCCC[C@H]2C(=O)N[C@@H](Cc2ccc3ccccc3c2)C(N)=O)c(C)c1` [Compound 52, [3-[2-(1-Carbamoyl-2-naphthalen-2-yl-ethylcarbamoyl)-piperidin-1-yl]-3-oxo-2-(2.4.6-trimethyl-benzenesulfonylamino)-propylsulfanylmethyl]-phosphonicacid]: under setting [1], the IC50 is 1 to 10 µM. Same read-out and setting: the figure for `NC(=O)[C@H](Cc1ccc2ccccc2c1)NC(=O)[C@@H]1CCCCN1C(=O)[C@H](CSCP(=O)(O)O)NS(=O)(=O)c1cccs1` [Compound 53, [3-[2-(1-Carbamoyl-2-naphthalen-2-yl-ethylcarbamoyl)-piperidin-1-yl]-3-oxo-2-(thiophene-2-sulfonylamino)propylsulfanyl-methyl]-phosphonic acid] is less than 1 µM; for `NC(=O)[C@H](Cc1ccc2ccccc2c1)NC(=O)[C@@H]1CCCCN1C(=O)[C@H](CSCP(=O)(O)O)NC(=O)CCN1CCCCC1` [Compound 54, [3-[2-(1-Carbamoyl-2-naphthalen-2-yl-ethylcarbamoyl)-piperidin-1-yl]-3-oxo-2-(3-piperidin-1-yl-propionylamino)-propylsulfanylmethyl]-phosphonicacid] it is 1 to 10 µM.

(Values after US20080194524A1, “Compounds For the Inhibition of Undesired Cell Proliferation and Use Thereof” (JERINI AG, priority 2003, published 2008).)
